# Assay results reported in US7214669B2, “Tetracycline derivatives and methods of use thereof” (Tetragenex Pharmaceuticals, Inc., priority 2001, dated 2007).
# Several values for one entry are separate records, joined by “and”; a condition that tells them apart may be missing. Identical values can stand only once. Counter-ions that a name gives are not always drawn.
# Experiments:
# [1] = biological target: T1, Human recombinant MMP1 (Homo sapiens, UniProt P03956); test: MMP1 (Collagenase-1) inhibition, 14C collagen release; type: biochemical; conditions: 35° C., 5 hours; read-out: MMP-1 inhibitory activity, IC50
# T1 sequence (P03956 100-469): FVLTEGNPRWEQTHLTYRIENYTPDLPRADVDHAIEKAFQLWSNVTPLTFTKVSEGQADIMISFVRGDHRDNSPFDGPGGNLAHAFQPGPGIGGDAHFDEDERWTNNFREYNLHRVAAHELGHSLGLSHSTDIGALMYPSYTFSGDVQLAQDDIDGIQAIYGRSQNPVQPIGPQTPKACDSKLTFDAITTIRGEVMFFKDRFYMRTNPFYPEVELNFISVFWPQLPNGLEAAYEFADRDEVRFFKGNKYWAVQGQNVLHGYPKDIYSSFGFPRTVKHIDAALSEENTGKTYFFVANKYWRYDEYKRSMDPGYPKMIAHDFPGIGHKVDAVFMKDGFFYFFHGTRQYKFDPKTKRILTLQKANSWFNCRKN
# [2] = biological target: Human recombinant MMP14 (Homo sapiens, UniProt P50281); test: MMP14 (MTI-MMP) inhibition, 14C collagen release; type: biochemical; conditions: 35° C., 15 hours; read-out: MMP-14 inhibitory activity, IC50
# [3] = biological target: T2, MMP2 (Gelatinase A) (Homo sapiens, UniProt P08253); test: MMP2 (Gelatinase A) inhibition, 14C gelatin release; type: biochemical; conditions: 37° C., 16 hours; read-out: MMP-2 inhibitory activity, IC50
# T2 sequence (P08253 110-660): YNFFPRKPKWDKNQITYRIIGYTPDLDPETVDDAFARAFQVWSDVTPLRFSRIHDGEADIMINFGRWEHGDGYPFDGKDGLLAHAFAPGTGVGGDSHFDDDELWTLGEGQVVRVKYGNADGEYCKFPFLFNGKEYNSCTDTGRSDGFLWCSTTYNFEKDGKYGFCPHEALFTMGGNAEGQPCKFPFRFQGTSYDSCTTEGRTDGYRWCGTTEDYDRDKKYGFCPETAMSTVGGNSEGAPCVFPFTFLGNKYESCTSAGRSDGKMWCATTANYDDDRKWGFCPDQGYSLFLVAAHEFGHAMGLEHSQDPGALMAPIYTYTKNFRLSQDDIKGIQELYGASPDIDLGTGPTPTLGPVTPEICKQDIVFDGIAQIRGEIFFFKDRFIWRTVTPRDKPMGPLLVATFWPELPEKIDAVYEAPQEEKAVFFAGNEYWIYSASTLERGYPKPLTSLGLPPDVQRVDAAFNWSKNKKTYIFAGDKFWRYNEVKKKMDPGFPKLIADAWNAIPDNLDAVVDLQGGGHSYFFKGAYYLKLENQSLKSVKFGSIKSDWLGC
# [4] = biological target: Human recombinant MMP9 (Homo sapiens, UniProt P14780); test: MMP9 (Gelatinase B) inhibition, 14C gelatin release; type: biochemical; conditions: 37° C., 16 hours; read-out: MMP-9 inhibitory activity, IC50
# [5] = biological target: Human recombinant MMP3 (Homo sapiens, UniProt P08254); test: MMP3 (Stromelysin 1) inhibition, 14C casein release; type: biochemical; conditions: 37° C., 16 hours; read-out: MMP-3 inhibitory activity, IC50
# [6] = test system: C8161 human melanoma cells; test: Membrane Invasion Culture System (MICS) chemo-invasion assay; type: cell-based; conditions: 25 ug/mL; 24 hours; + = increased invasiveness
# Excerpt: (§1) Another objective was to analyze the effects of specific, tetracycline derived compounds on the in-vitro chemo-invasive potential of: • C8161 human melanoma cells • MDA-MB-231 human breast cancer cells • PC3 human prostate cancer cells • RPM18226 human myeloma cancer cells • Ark human myeloma cancer cells • Arp-1 human myeloma cancer cells
# (§2) The Membrane Invasion Culture System (MICS) in vitro chemo-invasion assay was chosen to measure changes in the invasive potential of specific human cancer cells in response to tetracycline derived compounds. Stock solutions of each compound were hydrated in water containing 2% DMSO and pH 10.0. Upon solubilization, HCl was added to the solution to establish a pH of 7.5–8.0. This solution was then wrapped in foil and kept at 4° C. during the 24 hours of assay. Fresh compound was prepared for each assay. The in vitro chemoinvasion analyses for tumor cell invasiveness are performed using the Membrane Invasion Culture System (MICS) as previously described.
# (§3) The MICS system is a thermally treated plastic manifold system consisting of two matched sets of plates containing fourteen wells, 13 mm in diameter. Interposed between these plates was a polycarbonate filter containing 10 μm pores and coated with a defined matrix composed of human laminin/collagen IV/gelatin that formed a 35 μm thick barrier between the top and bottom sections of the wells in MICS. Prior to placing this barrier in place, the lower wells were filled with serum-free RPMI culture medium made 50% in conditioned medium obtained from 2-day-old cultures of human fibroblasts which had been cleared of cells and cellular debris by either centrifugation, or filtering through a 0.45 μm sterile filter. The barrier was then placed on the lower wells and fresh serum-free medium added to the upper wells after assembly of the system. Fifty thousand tumor cells were then added to the wells either in the presence of the compound, or the DMSO vehicle (the controls). Of the 12 assay wells on each manifold, 3 randomized wells acted as controls, 3 wells received 1 μg/ml of compound, 3 received 10 μg/ml and 3 received 25 μg/ml. After 24 hours, cells and media were removed from the lower wells and replaced by phosphate buffered saline plus 2 mM EDTA. This solution was used to remove all cells from the lower well, and this wash was added to the recovered cells plus medium from the same well. These samples were then collected onto a polylysine containing polycarbonate membrane containing 3 μm pores using a Dot-Blot manifold system. These collection filters were then fixed in methanol, and stained using Wright's stain (Leukostat staining kit) in situ. The filters were then mounted on microscope slides with microscope immersion oil (which reduced the light refraction from the pores) and 5 microscopic fields were counted to calculate the number of cells which invaded through the membrane over the 24 hour period. These numbers were then statistically analyzed as discussed below.
# [7] = test system: MDA-MB-231 human breast cancer cells; test: as above; type: cell-based; conditions: 25 ug/mL; 24 hours; + = increased invasiveness
# Excerpt: as §1, §2, §3
# [8] = test system: PC-3 ML human prostate cancer cells; test: as above; type: cell-based; conditions: 24 hours, + = increased invasiveness
# Excerpt: as §1, §2, §3
# Chain of Human recombinant MMP3 (P08254 100-477): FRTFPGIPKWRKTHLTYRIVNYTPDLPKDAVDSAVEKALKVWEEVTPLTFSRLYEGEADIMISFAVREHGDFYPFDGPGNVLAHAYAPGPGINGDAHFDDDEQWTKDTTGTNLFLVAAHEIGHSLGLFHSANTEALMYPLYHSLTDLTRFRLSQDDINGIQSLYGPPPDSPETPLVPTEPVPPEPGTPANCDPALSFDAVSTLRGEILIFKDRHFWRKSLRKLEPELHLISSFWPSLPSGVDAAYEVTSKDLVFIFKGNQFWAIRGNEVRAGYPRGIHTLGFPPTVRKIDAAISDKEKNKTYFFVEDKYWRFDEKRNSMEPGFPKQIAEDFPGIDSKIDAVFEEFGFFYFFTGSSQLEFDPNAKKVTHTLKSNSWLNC
# Chain of Human recombinant MMP9 (P14780 94-707): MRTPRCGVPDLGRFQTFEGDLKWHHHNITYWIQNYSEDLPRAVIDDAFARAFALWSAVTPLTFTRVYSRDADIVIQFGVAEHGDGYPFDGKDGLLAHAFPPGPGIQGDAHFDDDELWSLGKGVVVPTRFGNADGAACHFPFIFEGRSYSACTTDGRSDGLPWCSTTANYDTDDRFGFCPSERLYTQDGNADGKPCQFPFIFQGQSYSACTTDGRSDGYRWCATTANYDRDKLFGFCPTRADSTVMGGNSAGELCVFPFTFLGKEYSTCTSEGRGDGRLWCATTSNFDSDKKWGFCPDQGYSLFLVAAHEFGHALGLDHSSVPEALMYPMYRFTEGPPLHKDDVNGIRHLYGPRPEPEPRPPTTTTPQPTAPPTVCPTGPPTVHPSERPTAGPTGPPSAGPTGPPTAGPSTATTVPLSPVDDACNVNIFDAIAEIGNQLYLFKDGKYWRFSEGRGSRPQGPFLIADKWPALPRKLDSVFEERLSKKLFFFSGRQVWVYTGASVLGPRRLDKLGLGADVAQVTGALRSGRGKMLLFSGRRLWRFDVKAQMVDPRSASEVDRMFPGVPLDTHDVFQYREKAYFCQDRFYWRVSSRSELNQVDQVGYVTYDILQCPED
IC50 [1],IC50 [2],IC50 [3],IC50 [4],IC50 [5],SMILES,"percent inhibition, C8161 (Melanoma) [6]","percent inhibition, MDA-MB-231 (Breast) [7]","percent inhibition, PC-3 ML (Prostrate) ([8]; 1 ug/mL)","percent inhibition, PC-3 ML (Prostrate) ([8]; 10 ug/mL)","percent inhibition, PC-3 ML (Prostrate) ([8]; 25 ug/mL)"
270 µM,90 µM,925 µM,98 µM,394 µM,"CC1c2c(N(CCC(C)(C)C)CCC(C)(C)C)ccc(O)c2C(=O)C2=C(O)C3(O)C(=O)C(C(N)=O)=C(O)C(N(C)C)C3C(O)C21 (stereo not shown) [Compound 19, 7-Di-(3,3-dimethylbutyl)amino-6-deoxy-5-hydroxytetracycline H2SO4]",,,,,
429 µM,266 µM,511 µM,162 µM,281 µM,"CC1c2c(N=[N+]=[N-])ccc(O)c2C(=O)C2=C(O)C3(O)C(=O)C(C(N)=O)=C(O)C(N(C)C)C3C(O)C21 (stereo not shown) [Compound 20, 7-Azido-6-deoxy-5-hydroxy-tetracycline H2SO4]",,,,,
293 µM,115 µM,> 1000 µM,79 µM,> 1000 µM,"CC1c2c([N+]#N)ccc(O)c2C(=O)C2=C(O)C3(O)C(=O)C(C(N)=O)=C(O)C(N(C)C)C3C(O)C21 (stereo not shown) [Compound 21, 6-Deoxy-5-hydroxytetracycline-7-diazonium H2SO4]",,,,,
396 µM,459 µM,254 µM,341 µM,462 µM,"CC(=O)Nc1cc([N+](=O)[O-])c(O)c2c1C(C)C1C(=C(O)C3(O)C(=O)C(C(N)=O)=C(O)C(N(C)C)C3C1O)C2=O (stereo not shown) [Compound 22, 7-Acetamido-9-nitro-6-deoxy-5-hydroxytetracycline H2SO4]",,,,,
> 1000 µM,> 1000 µM,306 µM,> 1000 µM,> 1000 µM,"CC(=O)Nc1ccc(O)c2c1C(C)C1C(=C(O)C3(O)C(=O)C(C(N)=O)=C(O)C(N(C)C)C3C1O)C2=O (stereo not shown) [Compound 23, 7-Acetamido-6-deoxy-5-hydroxytetracycline H2SO4]",,,,,
405 µM,160 µM,724 µM,127 µM,191 µM,"CCCN(CCC)c1ccc(O)c2c1C(C)C1C(=C(O)C3(O)C(=O)C(C(N)=O)=C(O)C(N(C)C)C3C1O)C2=O (stereo not shown) [Compound 24, 7-Di-n-propylamino-6-deoxy-5-hydroxytetracycline H2SO4]",,,,,
974 µM,185 µM,397 µM,148 µM,303 µM,"CC(C)CNc1ccc(O)c2c1C(C)C1C(=C(O)C3(O)C(=O)C(C(N)=O)=C(O)C(N(C)C)C3C1O)C2=O (stereo not shown) [Compound 25, 7-Isobutylamino-6-deoxy-5-hydroxytetracycline H2SO4]",,,,,
> 1000 µM,586 µM,413 µM,384 µM,> 1000 µM,"CC(=O)Nc1cc(N)c(O)c2c1C(C)C1C(=C(O)C3(O)C(=O)C(C(N)=O)=C(O)C(N(C)C)C3C1O)C2=O (stereo not shown) [Compound 26, 7-Acetamido-9-amino-6-deoxy-5-hydroxytetracycline H2SO4]",,,,,
576 µM,> 1000 µM,> 1000 µM,> 1000 µM,938 µM,"CC(=O)Nc1cc([N+]#N)c(O)c2c1C(C)C1C(=C(O)C3(O)C(=O)C(C(N)=O)=C(O)C(N(C)C)C3C1O)C2=O (stereo not shown) [Compound 30, 7-Acetamido-6-deoxy-5-hydroxytetracycline-9-diazonium H2SO4]",,,,,
621 µM,593 µM,258 µM,311 µM,> 1000 µM,"C[C@H]1c2c(N(C)C)cc([N+]#N)c(O)c2C(=O)C2=C(O)[C@]3(O)C(=O)C(C(N)=O)=C(O)[C@@H](N(C)C)[C@@H]3[C@@H](O)[C@@H]21 [Compound 31, 7-Dimethylamino-6-deoxy-5-hydroxytetracycline-9-diazonium H2SO4]",,,,,
601 µM,197 µM,236 µM,214 µM,244 µM,"CC1c2c(NC3CCC3)ccc(O)c2C(=O)C2=C(O)C3(O)C(=O)C(C(N)=O)=C(O)C(N(C)C)C3C(O)C21 (stereo not shown) [Compound 32, 7-Cyclobutylamino-6-deoxy-5-hydroxytetracycline H2SO4]",,,,,
242 µM,197 µM,242 µM,308 µM,136 µM,"CC1c2cccc(O)c2C(=O)C2=C(O)C3(O)C(=O)C(C(N)=O)=C(O)CC3C(O)C21 (stereo not shown) [Compound 34, 4-Dedimethylamino-6-deoxy-5-hydroxytetracycline]",,,,,
947 µM,108 µM,249 µM,397 µM,218 µM,"CC1c2ccc([N+](=O)[O-])c(O)c2C(=O)C2=C(O)C3(O)C(=O)C(C(N)=O)=C(O)CC3C(O)C21 (stereo not shown) [Compound 35, 4-Dedimethylamino-6-deoxy-5-hydroxy-9-nitrotetracycline]",,,,,
539 µM,608 µM,> 1000 µM,> 1000 µM,283 µM,"CC1c2ccc(N)c(O)c2C(=O)C2=C(O)C3(O)C(=O)C(C(N)=O)=C(O)CC3C(O)C21 (stereo not shown) [Compound 36, 9-animo-4-dedimethylamino-6-deoxy-5-hydroxytetracycline sulfate]",,,,,
230 µM,69 µM,175 µM,215 µM,95 µM,"CC1c2c([N+](=O)[O-])cc(C(C)(C)C)c(O)c2C(=O)C2=C(O)C3(O)C(=O)C(C(N)=O)=C(O)C(N(C)C)C3C(O)C21 (stereo not shown) [Compound 38, 7-nitro-9-tertbutyl-6-deoxy-5-hydroxytetracycline H2SO4]",66^B percent and 39%,70^B percent and 37%,37^B percent and 38^B percent,41^B percent and 27^B percent,41% and 52%
12800 µM,354 µM,1930 µM,424 µM,506 µM,"C[C@H]1c2c(N)ccc(O)c2C(=O)C2=C(O)[C@]3(O)C(=O)C(C(N)=O)=C(O)C[C@@H]3[C@@H](O)[C@@H]21 [Compound 48, 4-Dedimethylamino-7-amino-6-deoxy-5-hydroxyltetracycline H2SO4]",,,,,
